The source of these data is publication PMC6331856, “Carapanolides T–X from Carapa guianensis (Andiroba) Seeds” (Molecules, 2015).

By IC50 is commonly meant the concentration at which inhibition is half-maximal. Broadly, the melting point is the temperature, or range, at which the solid turns liquid.

The test system of one data set is NO production. To be noted: previous study; read-out: inhibitory activity on NO production IC50; cited from earlier work.
The subject of data set [1] is NO production in LPS-stimulated RAW264.7 cells. Description: Inhibitory assay of NO production in LPS-stimulated RAW264.7 cells. Type of data set: cell-based. Particulars: Mus musculus, LPS 5 μg/mL, 24 h treatment. The protocol:
(§1) Macrophages may be a potential therapeutic target for inflammatory diseases. Activated macrophages release pro-inflammatory mediators, such as NO, reactive oxygen, interleukin-1 beta, tumor necrosis factor-alpha and other inflammatory mediators, which play important roles in biological defense. […] In the present study, four limonoids and N^G-monomethyl-L-arginine acetate (L-NMMA), an inducible nitric oxide synthase (iNOS) inhibitor, were evaluated for their inhibitory effects on NO production in LPS-stimulated RAW264.7 cells (Figure 5). To determine safe concentrations, the cytotoxicities of these limonoids against RAW 264.7 were assessed by the MTT assay.
An inhibitory assay of nitric oxide production was performed according to a method reported previously with slight modifications. Briefly, RAW264.7 cells (5 × 10^4 cells in 100 μL) were seeded onto 96-well microplates and incubated for 24 h. D-MEM (100 μL) containing test samples (final concentration of 100, 30, 10 or 3 μM) dissolved in DMSO (final concentration 0.2%) and LPS (final concentration of 5 μg/mL) were added. After cells had been treated for 24 h, 50 μL of 0.1% N-(1-naphtyl)ethylenediamine in H2O and 50 μL of 1% sulfanilamide in 5% phosphoric acid were added. After being incubated for 30 min, the absorbance of each well was read at 570 nm using a microplate reader. […]

In a further data set the test system is RAW264.7 cells. Briefly: RAW264.7 cell proliferation / cytotoxicity by MTT assay. In kind it is cell-based. The protocol: as §1
RAW264.7 cell proliferation was examined according to a method reported previously with few modifications. Briefly, RAW264.7 cells (5 × 10^4 cells in 100 μL) were seeded onto 96-well microplates and incubated for 24 h. D-MEM (100 μL) containing test samples (final concentration of 100, 30, 10 or 3 μM) dissolved in DMSO (final concentration 0.2%) was added. After the cells had been treated for 24 h, the MTT solution was added. After 3 h of incubation, 20% sodium dodecyl sulfate (SDS) in 0.1 M HCl was added to dissolve the formazan produced by the cells. The absorbance of each well was read at 570 nm using a microplate reader. The optical density of vehicle control cells was assumed to be 100%.

The mark [2] stands for this setting: at the effective concentration 10 μM.

As for `CC(=O)O[C@@H]1[C@H](O)C2C(C)(C)C(=O)C=C[C@]2(C)C2CC[C@@]3(C)[C@H](c4ccoc4)OC(=O)[C@H]4O[C@]43[C@@]21C` (stereo partly drawn) [6α-hydroxygedunin], the half-maximal inhibitory concentration (IC50) in the data set on NO production was 19.1 µM. As to `CC=C(C)C(=O)OC1C2(O)CC3(O)C4=CC(=O)OC(c5ccoc5)C4(C)CCC3C(C)(C2=O)C(CC(=O)OC)C1(C)C` (stereo not drawn) [Compound 2, Carapanolide U], the melting point is 133 to 136 °C. The molecule also showed an IC50 in data set [1] of 23.3 µM. For the same molecule, in the data set with RAW264.7 cells (at 1–30 μM), the “cytotoxicity against RAW264.7” value is “did not show cytotoxicities”. The “cytotoxicity against RAW264.7” value in the data set on RAW264.7 cells (setting [2]) is listed as “not at an effective concentration”.

Take `CC1(C)C(=O)C=CC2(C)C1CC(O)C1(C)C2CCC2(C)C(c3ccoc3)OC(=O)C3OC321` (stereo not drawn) [7-deacetoxy-7-hydroxygedunin]: the half-maximal inhibitory concentration (IC50) with NO production is 8.4 µM. Turning to `CC(=O)O[C@H]1[C@@H](OC(C)=O)[C@]2(C)[C@H](CC[C@@]3(C)[C@H](c4ccoc4)OC(=O)[C@H]4O[C@@]423)[C@@]2(C)C=CC(=O)C(C)(C)[C@H]12` [6α-acetoxygedunin], the 50% inhibitory concentration (IC50) with NO production was 7.9 µM. As for `COC(=O)CC1C(C)(C)C(OC(=O)C(C)C)C2(O)CC3(O)C4=CC(=O)OC(c5ccoc5)C4(C)CCC3C1(C)C2=O` (stereo not drawn) [Compound 1, Carapanolide T], the melting point lay in the range of 83 to 85 °C. Also, in data set [1], half-maximal inhibition (IC50) required 22 µM. Further, in the data set on RAW264.7 cells (at 30 μM), the “cytotoxicity against RAW264.7” value was “low cytotoxicity”. Moreover, the “cytotoxicity against RAW264.7” value in the data set with RAW264.7 cells (setting [2]) was “not at the effective concentration”. Consider `CC1(C)C(=O)C=CC2(C)C1CC(=O)C1(C)C2CCC2(C)C(c3ccoc3)OC(=O)C3OC321` (stereo not drawn) [7-deacetoxy-7-oxogedunin], for which the IC50 with NO production is 12.8 µM. Take “6α-acetoxy-7α-deacetoxy-7α-hydroxygedunin”: in the data set with NO production, the IC50 is 9.4 µM.

Take carapanolide J: the IC50 in the data set with NO production was 37.4 µM. For the molecule `CC(=O)O[C@@H]1C[C@H]2C(C)(C)C(=O)C=C[C@]2(C)[C@H]2CC[C@@]3(C)[C@H](c4ccoc4)OC(=O)[C@H]4O[C@]43[C@@]21C` [gedunin], the IC50 with NO production is 4.6 µM.
